Target: T1, human GPR40 (Homo sapiens, UniProt O14842)
T1 construct: expressed in transfected cells
Assay: Inositol Phosphate Turnover (IP1) Assay
Type: cell-based
Settings: HEK cells stably expressing human GPR40; CisBio IP-One kit; 60 minutes at 37 degrees; read-out: Human IP1 EC50
Experimental: Human GPR40 stable cell-lines were generated in HEK cells. The expression plasmids were transfected using lipofectamine (Life Technologies) following manufacturer's instructions. Stable cell-lines were generated following drug selection and single cell cloning. The assay was performed in 384-well format. HEK cells stably expressing human GPR40 were plated at 7500 cells per well in growth medium (DMEM/10% fetal calf serum). Cell plates were then incubated 16 hours at 37 degrees in a 5% CO2 incubator. Measurement of Inositol Phosphate Turnover (IP1) was performed using the CisBio IP-One kit (Part number 62IPAPEB). After the 16 hour incubation, the growth media was removed by centrifugation using the BlueWasher (AusWasher GUI Ver. v1.0.1.8) Protocol #21-“Light Dry” and 10 ul of stimulation buffer (prepared as described in the kit) was added to each well. In a separate plate, compounds were diluted in DMSO (200-fold over the final concentration in the assay well) and 50 nl was acoustically transferred to the appropriate well in the assay cell plate. The plates were then incubated for 60 minutes at 37 degrees in a 5% CO2 incubator. 10 ul of detection buffer (also prepared as described in the IP-One kit) was added to each well and the plates were incubated at room temperature for 60 minutes in the dark. The plates were then read in a Perkin Elmer EnVision or equivalent reader able to measure FRET. […] Data was normalized to % activity using a reference compound and EC50s determined using a standard 4-parameter fit.

T1 sequence (O14842 whole entry): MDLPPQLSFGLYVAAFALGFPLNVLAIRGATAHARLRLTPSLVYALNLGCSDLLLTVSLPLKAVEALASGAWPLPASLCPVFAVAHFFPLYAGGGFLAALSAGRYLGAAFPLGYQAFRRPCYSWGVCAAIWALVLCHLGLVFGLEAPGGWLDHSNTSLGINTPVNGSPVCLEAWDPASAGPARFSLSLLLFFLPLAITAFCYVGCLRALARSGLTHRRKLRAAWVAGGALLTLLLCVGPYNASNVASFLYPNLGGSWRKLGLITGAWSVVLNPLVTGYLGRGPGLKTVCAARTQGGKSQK

Point of comparison: C[C@H](C(=O)O)[C@H](c1ccc2c(c1)OC1(CCCN([C@H](C)c3cc(C(F)(F)F)ccc3C(F)(F)F)CC1)CC2)C1CC1 (single isomer, unassigned) [Example 50, (2S,3R)-3-((S or R)-1-((R)-1-(2,5-bis (trifluoromethyl)phenyl)ethyl)spiro[azepane-4,2′-chroman]-7′-yl)-3-cyclopropyl-2-methylpropanoic acid], EC50 1.39 nM. Against it:
- CC(c1cc(C(F)(F)F)ccc1C1CC1)N1CCC2(CCc3ccc([C@H](C4CC4)[C@H](C)C(=O)O)c(F)c3O2)CC1 (single isomer, unassigned) [Example 14, sodium (2S,3R)-3-cyclo-propyl-3-(1′-((S or R)-1-(2-cyclopropyl-5-(trifluoromethyl)phenyl)-ethyl)-8-fluorospiro [chroman-2,4′-piperidin]-7-yl)-2-methylpropanoate] — 26-fold higher, 36.3 nM
- CC(c1cc(C(F)(F)F)ccc1C1CC1)N1CCC2(CCc3ccc([C@H](C4CC4)[C@H](C)C(=O)O)cc3O2)CC1 (single isomer, unassigned) [Example 15, sodium (2S,3R)-3-cyclo-propyl-3-(1′-((S or R)-1-(2-cyclopropyl-5-(trifluoromethyl)phenyl)ethyl)spiro[chroman-2,4′-piperidin]-7-yl)-2-methylpropanoate] — 4.2-fold higher, 5.9 nM
- CC(c1cc(F)cc(F)c1Cl)N1CCC2(CCc3ccc([C@H](C4CC4)[C@H](C)C(=O)O)c(F)c3O2)CC1 (single isomer, unassigned) [Example 17, (2S,3R)-3-(1′-((S or R)-1-(2-chloro-3,5-difluorophenyl)ethyl)-8-fluorospiro-[chroman-2,4′-piperidin]-7-yl)-3-cyclopropyl-2-methylpropanoic Acid] — 27-fold higher, 37.3 nM
- CC(c1cc(F)cc(F)c1Cl)N1CCC2(CCc3ccc([C@H](C4CC4)[C@H](C)C(=O)O)cc3O2)CC1 (single isomer, unassigned) [Example 18] — 33-fold higher, 46.1 nM
- CC(c1cc(F)cc(F)c1Cl)N1CCC2(CCc3ccc([C@H](C4CC4)[C@H](C)C(=O)O)cc3O2)CC1 (single isomer, unassigned) [Example 19] — 27-fold higher, 37.6 nM
- CC(c1nc(C(F)(F)F)ccc1Cl)N1CCC2(CCc3ccc([C@H](C4CC4)[C@H](C)C(=O)O)cc3O2)CC1 (single isomer, unassigned) [Example 30] — 36-fold higher, 50.4 nM
- CC(c1nc(C(F)(F)F)ccc1Cl)N1CCC2(CCc3ccc([C@H](C4CC4)[C@H](C)C(=O)O)cc3O2)CC1 (single isomer, unassigned) [Example 31] — 36-fold higher, 49.9 nM
- CC(c1cc(Cl)ccc1OC(F)F)N1CCC2(CCc3ccc([C@H](C4CC4)[C@H](C)C(=O)O)c(F)c3O2)CC1 (single isomer, unassigned) [Example 33, (2S,3R)-3-(1′-((R or S)-1-(5-chloro-2-(difluoromethoxy)phenyl)ethyl)-8-fluorospiro-[chroman-2,4′-piperidin]-7-yl)-3-cyclopropyl-2-methylpropanoic Acid] — 36-fold higher, 50 nM
- CC(c1cc(Cl)ccc1OC(F)F)N1CCC2(CCc3ccc([C@H](C4CC4)[C@H](C)C(=O)O)c(F)c3O2)CC1 (single isomer, unassigned) [Example 34, (2S,3R)-3-(1′-((S or R)-1-(5-chloro-2-(difluoro-methoxy)phenyl)ethyl)-8-fluorospiro-[chroman-2,4′-piperidin]-7-yl)-3-cyclopropyl-2-methylpropanoic acid] — 6.4-fold higher, 8.9 nM
- CC(c1ncccc1C(F)(F)F)N1CCC2(CCc3ccc([C@H](C4CC4)[C@H](C)C(=O)O)cc3O2)CC1 (single isomer, unassigned) [Example 43, (2S,3R)-3-cyclopropyl-2-methyl-3-(1′-((S or R)-1-(3-(trifluoromethyl)-pyridin-2-yl)ethyl)spiro[chroman-2,4′-piperidin]-7-yl)propanoic Acid] — 43-fold higher, 60.2 nM
- CC(c1ncccc1C(F)(F)F)N1CCC2(CCc3ccc([C@H](C4CC4)[C@H](C)C(=O)O)cc3O2)CC1 (single isomer, unassigned) [Example 44, (2S,3R)-3-cyclo-propyl-2-methyl-3-(1′-((R or S)-1-(3-(trifluoromethyl)pyridin-2-yl)ethyl)spiro-[chroman-2,4′-piperidin]-7-yl)propanoic acid] — 220-fold higher, 311 nM
- C[C@H](C(=O)O)[C@H](c1ccc2c(c1)OC1(CCCN(Cc3cc(C(F)(F)F)ccc3C(F)(F)F)CC1)CC2)C1CC1 (single isomer, unassigned) [Example 47, (2S,3R)-3-((R or S)-1-(2,5-bis(trifluoromethyl)benzyl)spiro[azepane-4,2′-chroman]-7′-yl)-3-cyclopropyl-2-methylpropanoic Acid] — 1.9-fold higher, 2.64 nM
- C[C@H](C(=O)O)[C@H](c1ccc2c(c1)OC1(CCCN(Cc3cc(C(F)(F)F)ccc3C(F)(F)F)CC1)CC2)C1CC1 (single isomer, unassigned) [Example 48, sodium (2S,3R)-3-((R or S)-1-(2,5-bis (trifluoromethyl)benzyl)spiro[azepane-4,2′-chroman]-7′-yl)-3-cyclopropyl-2-methyl-propanoate] — within 1.5-fold, 1.06 nM
- C[C@H](C(=O)O)[C@H](c1ccc2c(c1)OC1(CCCN([C@H](C)c3cc(C(F)(F)F)ccc3C(F)(F)F)CC1)CC2)C1CC1 (single isomer, unassigned) [Example 49, (2S,3R)-3-((R or S)-1-((R)-1-(2,5-bis (trifluoromethyl)phenyl)ethyl)spiro[azepane-4,2′-chroman]-7′-yl)-3-cyclopropyl-2-methylpropanoic acid] — 2.6-fold lower, 0.527 nM
- C[C@H](C(=O)O)[C@H](c1ccc2c(c1)OC1(CCCN([C@@H](C)c3cc(C(F)(F)F)ccc3C(F)(F)F)CC1)CC2)C1CC1 (single isomer, unassigned) [Example 51, (2S,3R)-3-((R or S)-1-((S)-1-(2,5-bis (trifluoromethyl)phenyl)ethyl)spiro[azepane-4,2′-chroman]-7′-yl)-3-cyclopropyl-2-methylpropanoic acid] — 10-fold higher, 14.1 nM
- C[C@H](C(=O)O)[C@H](c1ccc2c(c1)OC1(CCCN([C@@H](C)c3cc(C(F)(F)F)ccc3C(F)(F)F)CC1)CC2)C1CC1 (single isomer, unassigned) [Example 52, (2S,3R)-3-((S or R)-1-((S)-1-(2,5-bis (trifluoromethyl)phenyl)ethyl)spiro[azepane-4,2′-chroman]-7′-yl)-3-cyclopropyl-2-methylpropanoic acid] — 1.9-fold higher, 2.66 nM
- CC(c1cc(C2CC2)ccc1C(F)(F)F)N1CCC2(CCc3ccc([C@H](C4CC4)[C@H](C)C(=O)O)cc3O2)CC1 (single isomer, unassigned) [Example 57, (2S,3R)-3-cyclopropyl-3-(1′-((R or S)-1-(5-cyclopropyl-2-(trifluoromethyl)phenyl)-ethyl)-spiro[chroman-2,4′-piperidin]-7-yl)-2-methylpropanoic Acid] — within 1.5-fold, 1.4 nM
- CC(c1cc(C2CC2)ccc1C(F)(F)F)N1CCC2(CCc3ccc([C@H](C4CC4)[C@H](C)C(=O)O)cc3O2)CC1 (single isomer, unassigned) [Example 58, (2S,3R)-3-cyclopropyl-3-(1′-((S or R)-1-(5-cyclo-propyl-2-(trifluoromethyl)-phenyl)ethyl)-spiro [chroman-2,4′-piperidin]-7-yl)-2-methylpropanoic acid] — 3.2-fold higher, 4.43 nM
